For test [1], the target named is T1, h-TGR5 (Homo sapiens, UniProt Q8TDU6).
T1 sequence (Q8TDU6 1-330): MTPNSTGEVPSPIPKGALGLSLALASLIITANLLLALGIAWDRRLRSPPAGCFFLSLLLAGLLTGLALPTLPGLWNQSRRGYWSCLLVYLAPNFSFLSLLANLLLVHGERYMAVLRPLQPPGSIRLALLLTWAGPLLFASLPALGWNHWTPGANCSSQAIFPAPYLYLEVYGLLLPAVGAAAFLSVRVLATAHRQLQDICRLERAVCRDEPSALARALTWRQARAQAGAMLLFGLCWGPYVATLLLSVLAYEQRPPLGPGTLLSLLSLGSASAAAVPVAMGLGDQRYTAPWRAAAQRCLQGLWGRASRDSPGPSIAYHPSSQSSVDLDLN
The test is described as follows: TGR5 cAMP Assay using Cisbio cAMP Dynamic 2 htrf assay kit. It counts as cell-based. The conditions noted are these: hTGR5CRE-luc HEK 293 cells.

In test [2] the target is T2, human TGR5 (h-TGR5) (Homo sapiens, UniProt Q8TDU6).
T2 sequence (Q8TDU6 1-330): T1 sequence (Q8TDU6 1-330)
Kind of test: TGR5/CRE-Luciferase Assay. To be noted: HEK 293 hTGR5/CRE-Luc cells, 6 hours incubation, read-out: CRE-Luc Agonist (EC50). It is filed as cell-based. A digest of the protocol:
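HEK 293 CRE-Luciferase cells stably expressing the receptor, plated in DMEM 18-20 h before assay, then exposed to serially diluted compounds (DMEM with 5% DMSO) for 6 h. Luciferase read-out after lysis; EC50 from dose-response.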

Structures can show the parent of a compound that is named as a salt.

Consider `CC[N+](CC)(CC)CCOc1cc(F)c(CSc2ncc(C(C)(C)c3ccc(Cl)c(OC)c3)n2-c2ccc(F)cc2)c(F)c1` [Compound 20a, 2-(4-((5(2-(4-chloro-3-methoxyphenyl)propan-2-yl)-(4-fluorophenyl)-1H-imidazol-2-ylthio)methyl)-3,5-difluorophenoxy)-N,N,N-triethylethanaminium chloride], for which the EC50 in test [1] and in test [2] was less than 100 nM each time.

For `COc1cc(C(C)(C)c2cnc(SCc3c(F)cc(S(=O)(=O)N(CCC[N+]45CCN(CC4)CC5)[C@H](C)C(=O)O)cc3F)n2-c2ccc(F)cc2)ccc1Cl` [Compound 22, (R)-1-(3-(N-(1-carboxyethyl)-4-((5-(2-(4-chloro-3-methoxyphenyl)propan-2-yl)-1-(4-fluorophenyl)-1H-Imidazol-2-ylthio)methyl)-3,5-difluorophenylsulfonamido)propyl)-4-aza-1-azoniabicyclo[2.2.2]octane chloride], the EC50 in test [1] and in test [2] was less than 100 nM in each case.

Take `COc1cc(C(C)(C)c2cnc(SCc3c(F)cc(S(=O)(=O)N(CCCC[N+]45CCN(CC4)CC5)[C@H](C)C(=O)O)cc3F)n2-c2ccc(F)cc2)ccc1Cl` [Compound 22a, N-[4-(4-aza-1-azoniabicyclo[2.2.2]oct-1-yl)butyl]-N-{[4-({[5-{1-[4-chloro-3-(methyloxy)phenyl]-1-methylethyl}-1-(4-fluorophenyl)-1H-imidazol-2-yl]thio}methyl)-3,5-difluorophenyl]sulfonyl}-D-alanine]: the EC50 in test [1] and in test [2] was less than 100 nM throughout.

With `COc1cc(C(C)(C)c2cnc(SCc3c(F)cc(C(=O)NCC[N+](C)(C)C)cc3Cl)n2-c2ccc(F)cc2)ccc1Cl` [Example 1, 2-(3-chloro-4-((S-(2-(4-chloro-3-methoxyphenyl)propan-2-yl)-1-(4-fluorophenyl)-1H-imidazol-2-ylthio)methyl)-S-fluorobenzamido)-N,N,N-trimethylethanaminium chloride], the EC50 in test [1] and in test [2] was less than 100 nM in each case.

Regarding `COc1cc(-n2c(C(C)(C)c3ccc(S(N)(=O)=O)c(Cl)c3)cnc2SCc2c(F)cc(C(=O)NCC[N+](C)(C)C)cc2Cl)ccc1F` [Example 1a, 2-{[(4-{[(5-{1-[4-(aminosulfonyl)-3-chlorophenyl]-1-methylethyl}-1-[4-fluoro-3-(methyloxy)phenyl]-1H-imidazol-2-yl)thio]methyl}-3-chloro-5-fluorophenyl)carbonyl]amino}-N,N,N-trimethylethanaminium], the EC50 in test [1] and in test [2] was less than 100 nM throughout.

For `COc1cc(-n2c(C(C)(C)c3ccc4onc(N)c4c3)cnc2SCc2c(F)cc(C(=O)NCC[N+](C)(C)C)cc2Cl)ccc1F` [Example 1b, 2-[({4-[({5-[1-(3-amino-1,2-benzisoxazol-5-yl)-1-methylethyl]-1-[4-fluoro-3-(methyloxy)phenyl]-1H-imidazol-2-yl}thio)methyl]-3-chloro-5-fluorophenyl}carbonyl)amino]-N,N,N-trimethylethanaminium], the EC50 in test [1] and in test [2] was less than 100 nM each time.

With `CC(C)(c1ccc2onc(N)c2c1)c1cnc(SCc2c(F)cc(C(=O)NCC[N+](C)(C)C)cc2Cl)n1-c1ccc(F)cc1` [Example 1c, 2-[({4-[({5-[1-(3-amino-1,2-benzisoxazol-5-yl)-1-methylethyl]-1-(4-fluorophenyl)-1H-imidazol-2-yl}thio)methyl]-3-chloro-5-fluorophenyl}carbonyl)amino]-N,N,N-trimethylethanaminium], the EC50 in test [1] and in test [2] was less than 100 nM throughout.

As for `COc1cc(C(C)(C)c2cnc(COc3c(F)cc(C(=O)NCC[N+](C)(C)C)cc3Cl)n2-c2ccc(F)cc2)ccc1Cl` [Example 1e, 2-({[3-chloro-4-({[5-{1-[4-chloro-3-(methyloxy)phenyl]-1-methylethyl}-1-(4-fluorophenyl)-1H-imidazol-2-yl]methyl}oxy)-5-fluorophenyl]carbonyl}amino)-N,N,N-trimethylethanaminium], the EC50 in test [1] and in test [2] was less than 100 nM each time.

With `COc1cc(C(C)(C)c2cnc(CCc3c(F)cc(C(=O)NCC[N+](C)(C)C)cc3Cl)n2-c2ccc(F)cc2)ccc1Cl` [Example 1f, 2-{[(3-chloro-4-{2-[5-{1-[4-chloro-3-(methyloxy)phenyl]-1-methylethyl}-1-(4-fluorophenyl)-1H-imidazol-2-yl]ethyl}-5-fluorophenyl)carbonyl]amino}-N,N,N-trimethylethanaminium], the EC50 in test [1] and in test [2] was less than 100 nM each time.

For the compound `COc1cc(C(C)(C)c2cnc(SCc3c(F)cc(C(=O)NCC[N+]45CCN(CC4)CC5)cc3Cl)n2-c2ccc(F)cc2)ccc1Cl` [Example 2, 1-(2-(3-chloro-4-((5-(2-(4-chloro-3-methoxyphenyl)propan-2-yl)-1-(4-fluorophenyl)-1H-imidazol-2-ylthio)methyl)-5-fluorobenzamido)ethyl)-4-aza-1-azoniabicyclo-[2.2.2]octane chloride hydrochloride], the EC50 in test [1] and in test [2] was less than 100 nM each time.

In the case of `COc1cc(C(C)(C)c2cnc(SCc3c(F)cc(C(=O)NCC[N+]45CCN(CC4)CC5)cc3Cl)n2-c2ccc(F)cc2)ccc1F` [Example 2a, 1-[2-({[3-chloro-5-fluoro-4-({[5-{1-[4-fluoro-3-(methyloxy)phenyl]-1-methylethyl}-1-(4-fluorophenyl)-1H-imidazol-2-yl]thio}methyl)phenyl]carbonyl}amino)ethyl]-4-aza-1-azoniabicyclo[2.2.2]octane], the EC50 in test [1] and in test [2] was less than 100 nM throughout.

As for `COc1cc(-n2c(C(C)(C)c3ccc(Cl)c(Cl)c3)cnc2SCc2c(F)cc(C(=O)NCC[N+]34CCN(CC3)CC4)cc2Cl)ccc1F` [Example 2b, 1-{2-[({3-chloro-4-[({5-[1-(3,4-dichlorophenyl)-1-methylethyl]-1-[4-fluoro-3-(methyloxy)phenyl]-1H-imidazol-2-yl}thio)methyl]-5-fluorophenyl}carbonyl)amino]ethyl}-4-aza-1-azoniabicyclo[2.2.2]octane], the EC50 in test [1] and in test [2] was less than 100 nM throughout.

As to `COc1cc(C(C)(C)c2cnc(SCc3c(F)cc(C(=O)NC4CC[N+](C)(C)CC4)cc3Cl)n2-c2ccc(F)cc2)ccc1Cl` [Example 2c, 4-({[3-chloro-4-({[5-{1-[4-chloro-3-(methyloxy)phenyl]-1-methylethyl}-1-(4-fluorophenyl)-1H-imidazol-2-yl]thio}methyl)-5-fluorophenyl]carbonyl}amino)-1,1-dimethylpiperidinium], the EC50 in test [1] and in test [2] was less than 100 nM each time.

Take `COc1cc(C(C)(C)c2cnc(SCc3c(F)cc(C(=O)N[C@H]4CCC[N+](C)(C)C4)cc3Cl)n2-c2ccc(F)cc2)ccc1Cl` [Example 2d, (3S)-3-({[3-chloro-4-({[5-{1-[4-chloro-3-(methyloxy)phenyl]-1-methylethyl}-1-(4-fluorophenyl)-1H-imidazol-2-yl]thio}methyl)-5-fluorophenyl]carbonyl}amino)-1,1-dimethylpiperidinium]: the EC50 in test [1] and in test [2] was less than 100 nM in each case.

The record behind these values is patent US8846739B2, “TGR5 agonists” (Exelixis Patent Company LLC, priority 2009, dated 2014).
